# Test results reported in patent publication US11643413B2, “9-(2-oxacycloalkyl)-9H-purine-2,6-diamine derivatives and their use for the treatment of skin disorders” (UNIVERZITA PALACKEHO V OLOMOUCI, priority 2017, dated 2023).
# How the values were obtained:
# [1] = system: Salmonella typhimurium strains TA 98, TA 100, TA 1535, TA 1537; assay: Ames test (Bacterial Reverse Mutation Test), Salmonella; type: cell-based; conditions: 10-1000 μg per plate; without as well as with metabolic activation
# Protocol: The test substance was (114) assayed for the mutagenicity by the Bacterial Reverse Mutation Test. The performed test was based on EU method B.13/14 Mutagenicity—Reverse mutation test using bacteria, which is analogous to the OECD Test Guideline No. 471. Four indicator Salmonella typhimurium strains TA 98, TA 100, TA 1535, TA 1537 and one indicator Escherichia coli WP2 uvrA strain were used. The test substance was dissolved in dimethylsulfoxide (DMSO) and assayed in doses of 10-1000 μg per plate, which were applied to plates in volume of 0.1 mL. Experiments were performed without as well as with metabolic activation with a supernatant of rat liver and a mixture of cofactors. The working procedure described is in accordance with the documents Method B.13/14, Mutagenicity: Reverse Mutation Test Using Bacteria, Council Regulation (EC) No. 440/2008. Published in O.J. L 142, 2008 and OECD Test Guideline 471, Bacterial Reverse Mutation Test. Adopted Jul. 21, 1997. In the arrangement given above, the test substance was non-mutagenic for all the used tester strains without as well as with metabolic activation.
# in vivo = conditions: both sexes, Wistar, rat, sc
# Protocol: The aim of the study was to investigate acute toxic effects of the test substance, after a single subcutaneous administration to Wistar rats. The testing was performed according to the methods: ČSN EN ISO 10993-11: Biologické hodnoceni zdravotnických prostředků—část 11: Zkoušky na systémovou toxicitu and OECD Test Guideline No. 420 Acute Oral Toxicity—Fixed Dose Proceduře. Adopted 17 Dec. 2001. The test substance 114 was administered in a single dose as solution in vehicle (olive oil), given subcutaneously to male and female Wistar rats. The dosing was performed sequentially. The pre-test (the sighting study) was performed with 1 female and 1 male for each dose level. The dose level of 30 mg/kg was used as the starting dose. No death of animal was recorded at the starting dose, therefore the following dose level was used (100 mg/kg). […] The presence of subcutaneously administered test substance at the dose level of 30 and 100 mg/kg was visible to second day after application. […] According to the study results the Maximum Tolerated Dose (subcutaneous) of the test substance for male and female rats is >100 mg/kg.
# BJ skin fibroblasts = assay: Intracellular ROS production, DCFH-DA probe; type: cell-based, human; conditions: 24 h incubation at 100, 10, 1 and 0.1 μM
# Protocol: ROS production in living cells was determined by using the fluorescent probe DCFH-DA. In brief, compound 114 at 100, 10, 1 and 0.1 μM concentrations was incubated for 24 h with BJ skin fibroblasts. Thereafter, cells were washed with phosphate buffer and DCFH-DA was added. The fluorescence was read every 1 min over 20 min by using microplate reader Infinite M200 (TECAN, Switzerland). ROS production was calculated as the increase in fluorescence over 20 min.
# NIH3T3 fibroblasts = assay: Peroxidation of membrane lipids, MDA by TBA method; type: cell-based, mouse; conditions: FW = fresh weight
# Protocol: A typical symptom associated with aging is the direct consequence of increased concentrations of reactive oxygen species and lipid peroxidation. […] MDA levels were measured using thiobarbituric acid (TBA method). […] The crude extract was centrifuged at 10,000×g for 5 minutes and 100 μl aliquots of the supernatant were mixed with 100 μl of 0.5% (w/v) TBA containing 0.1% (w/v) trichloroacetic acid. The resulting solution was then incubated for 30 min at 95° C. The samples were rapidly cooled on ice and centrifuged for 5 minutes at 1000×g. […] The newly prepared derivatives of the general formula thus have a protective function against the negative effects of reactive oxygen species that accumulate strongly in the tissues.
# [2] = Calcein AM cytotoxicity, NIH-3T3; conditions: mouse, NIH-3T3 fibroblasts
# From the text: (§1) One of the parameters used, as the basis for cytotoxicity assays, is the metabolic activity of viable cells. For example, a microtiter assay, which uses the Calcein AM, is now widely used to quantitate cell proliferation and cytotoxicity. […] Because only metabolically active cells cleave Calcein AM, these assays detect viable cells exclusively. The quantity of reduced Calcein AM corresponds to the number of vital cells in the culture.
# (§2) Mouse fibroblasts NIH3T3; mouse immortalized bone marrow macrophages B2.4 and B10A.4, and BJ (human foreskin fibroblasts) were used for routine screening of compounds. The cells were maintained in Nunc/Corning 80 cm^2 plastic tissue culture flasks and cultured in cell culture medium (DMEM with 5 g/l glucose, 2 mM glutamine, 100 U/ml penicillin, 100 μg/ml streptomycin, 10% fetal calf serum and sodium bicarbonate).
# (§3) The cell suspensions that were prepared and diluted according to the particular cell type and the expected target cell density (2.500-30.000 cells per well based on cell growth characteristics) were added by pipette (80 μl) into 96/well microtiter plates. Inoculates were allowed a pre-incubation period of 24 hours at 37° C. and 5% CO2 for stabilisation. Four-fold dilutions of the intended test concentration were added at time zero in 20 μl aliquots to the microtiter plate wells. Usually, the compound tested was evaluated at six 4-fold dilutions. […] All compound concentrations were examined in duplicates. Incubations of cells with the tested compounds lasted for 72 hours at 37° C., in 5% CO2 atmosphere and 100% humidity. At the end of the incubation period, the cells were assayed by using Calcein AM. Ten microliters of the stock solution were pipetted into each well and incubated for 1 hour. Fluorescence (FD) was measured with the Labsystem FIA Reader Fluoroscan Ascent (UK).
# [3] = Calcein AM cytotoxicity, B10A.4 (first column); conditions: mouse, B10A.4 immortalized bone marrow macrophages
# From the text: as §1, §2, §3
# [4] = Radical scavenging activity determined by ORAC; conditions: relative to trolox; Mean ± SD (n = 3)
# Protocol: The ability of compounds to scavenge free radicals in vitro was determined by Oxygen Radical Absorbance Capacity (ORAC) method. In brief, fluorescein (100 μl, […]) and 25 μl of compound solution were added into each working well in a 96-well microplate preincubated at 37° C. Thereafter, 25 μL of 250 mM AAPH was quickly added, microplate was shaken for 5 s and the fluorescence (Ex. 485 nm, Em. 510 nm) was read every 3 min over 90 min by using microplate reader Infinite 200 (TECAN, Switzerland). The net area under the curve was used to express antioxidant activity relative to trolox which was used as a standard.
# [5] = system: human epidermal model EpiDerm™; assay: In vitro skin irritation test, EpiDerm; type: cell-based
# Protocol: Test substance was assayed for the in vitro skin irritation in human epidermal model EpiDerm™. The test was performed according to the Method B.46. In vitro skin irritation: Reconstructed human epidermis model test and Protocol for: In Vitro EpiDerm™ Skin Irritation Test For use with MatTek Corporation's Reconstructed Human Epidermal Model EPI-200-SIT (see par. 1.4, (1), (3)). Two types of extract were prepared by means of polar (water) as well as non-polar extractant (olive oil) according to directions given in ČSN EN ISO 10 993-12 (2012). After pre-incubation of tissues, 30 μl of an extract was placed directly atop to the tissue so it covered all tissue surfaces. Length of exposition was 60 minutes. Three tissues were used for the extract and for each control. The procedure was performed separately for each extract. After removal of extracts of the test substance from tissues, tissues were post incubated for 42 hours due to leave of damage reparation, followed by three hours incubation with MTT and two hours extraction period with shaking. Optical density (OD570) of isopropyl alcohol extracts was measured on a spectrophotometer. Relative cell viability was calculated for each tissue as % of the mean viability of the negative control tissues. Under the above-described experimental design, average viability of tissues treated by test substance water extract was 99.0% and by test substance olive oil extract 103.0%, i.e. viability was >50% in both cases. The effect of the test substance 114 was negative in EpiDerm™ model (tissues were not damaged). According to the classification criteria given in chapter 4.5, the test substance is considered to have no category in regard to skin irritation.
# [6] = Calcein AM cytotoxicity, BJ; conditions: human, BJ foreskin fibroblasts
# From the text: as §1, §2, §3
# [7] = 60 minutes exposition, 42 hours post incubation, MTT, % of negative control
compound,measurement,setting,value
"CN(C)c1nc(NCc2ccco2)c2ncn(C3CCCCO3)c2n1 (stereo not drawn) [Compound 114, 2-(Dimethylamino)-6-furfurylamino-9-(tetrahydro-2H-pyran-2-yl)-9H-purine]",mutagenicity,[1],non-mutagenic
same,MTD,in vivo,> 100 mg/kg
same,concentration at which intracellular ROS production is significantly decreased,BJ skin fibroblasts,≥ 10 µM
same,MDA,NIH3T3 fibroblasts,8.8 nmol/g FW
same,IC50 at 72 h,[2],> 167 µM
same,IC50 at 72 h,[3],> 167 µM
same,ORAC (compound/trolox),[4],0.211 ± 0.018
same,skin irritation classification,[5],no category
same,"average viability of tissues, olive oil extract",[5]; [7],103.0%
same,"average viability of tissues, water extract",[5]; [7],99.0%
same,effect in EpiDerm model,[5]; water and olive oil extracts,negative
same,IC50 at 72 h,[6],> 167 µM
